Assay results reported in publication PMC5931107, “Clinical pharmacodynamic/exposure characterisation of the multikinase inhibitor ilorasertib (ABT-348) in a phase 1 dose-escalation trial” (British Journal of Cancer, 2018).

Assays:
VEGFR2 = tested on: VEGFR2; parameters: method as in PMID 22935731; details: 1 mM ATP; read-out: Biochemical IC50 (95% confidence limits); cited from earlier work
Aurora B (Y156H) = tested on: Aurora B (Y156H); parameters: method as in PMID 22935731; details: Y156H mutant, 1 mM ATP; read-out: Biochemical IC50 (95% confidence limits); cited from earlier work
[1] = Safety: treatment-emergent adverse events (CTCAE v4.0), phase 1 trial; assay type: in vivo, human
Description: Safety was assessed on the basis of AEs, physical examination, vital signs, electrocardiograms, multiple-gated acquisition scans, and clinical laboratory test assessments. AEs were graded using National Cancer Institute CTCAE version 4.0.
Descriptive statistics were used for demographic variables. The numbers and percentages of patients with treatment-emergent AEs (TEAEs) were tabulated using the Medical Dictionary for Regulatory Activities version 16.0 system organ class and preferred term, and further classified according to CTCAE version 4.0 criteria. The safety data set included all patients who received one or more doses of ilorasertib. The pharmacokinetic data set included all patients who received one or more doses of ilorasertib and had one or more pharmacokinetic samples. Values for pharmacokinetic parameters were determined using non-compartmental methods, with data analysed separately for each arm. A repeated measures analysis was performed for Tmax and dose-normalised Cmax, AUCt, and AUC∞. The model included random effects for patient and fixed effects for dose level, day, and the interaction of dose level and day. To assess effects of exposure on pharmacodynamic biomarkers, Cmax was employed as the directly measured marker of exposure for the rapid changes in DBP and PlGF pre-steady-state, while AUC∞ reflected exposure variability at the time of post-multiple-dose skin biopsy. Descriptive statistics were used to summarise ECOG performance status. The efficacy data set included all patients who received one or more doses of ilorasertib.

Aurora B = tested on: Aurora B; parameters: method as in PMID 22935731; details: Aurora B autophosphorylation, nocodazole-arrested HeLa cells; read-out: Cellular PD marker IC50 (95% confidence limits); cited from earlier work
c-KIT = tested on: c-KIT; parameters: method as in PMID 22935731; details: 1 mM ATP; read-out: Biochemical IC50 (95% confidence limits); cited from earlier work

Nc1ncc(-c2cnn(CCO)c2)c2scc(-c3ccc(NC(=O)Nc4cccc(F)c4)cc3)c12 [ilorasertib, Ilorasertib]
IC50 (VEGFR2): 2 nM
Any grade AE, patients n (%) ([1]; Arm I PO QD, N = 23): 22 (96)
Constipation, any grade TEAE, patients n (%) ([1]; Arm I PO QD, N = 23): 6 (26)
Decreased appetite, any grade TEAE, patients n (%) ([1]; Arm I PO QD, N = 23): 8 (35)
Diarrhoea, any grade TEAE, patients n (%) ([1]; Arm I PO QD, N = 23): 5 (22)
Diarrhoea, grade 3 or 4 TEAE, patients n (%) ([1]; Arm I PO QD, N = 23): 1 (4)
Dyspnoea, any grade TEAE, patients n (%) ([1]; Arm I PO QD, N = 23): 2 (9)
Grade 3 or 4 AE, patients n (%) ([1]; Arm I PO QD, N = 23): 14 (61)
Headache, any grade TEAE, patients n (%) ([1]; Arm I PO QD, N = 23): 5 (22)
Hypertension, any grade TEAE, patients n (%) ([1]; Arm I PO QD, N = 23): 8 (35)
Hypertension, grade 3 or 4 TEAE, patients n (%) ([1]; Arm I PO QD, N = 23): 4 (17)
Hypokalaemia, any grade TEAE, patients n (%) ([1]; Arm I PO QD, N = 23): 3 (13)
Hypomagnesaemia, any grade TEAE, patients n (%) ([1]; Arm I PO QD, N = 23): 3 (13)
Nausea, any grade TEAE, patients n (%) ([1]; Arm I PO QD, N = 23): 8 (35)
Neutropenia, grade 3 or 4 TEAE, patients n (%) ([1]; Arm I PO QD, N = 23): 0
Thrombocytopenia, any grade TEAE, patients n (%) ([1]; Arm I PO QD, N = 23): 3 (13)
Urinary tract infection, any grade TEAE, patients n (%) ([1]; Arm I PO QD, N = 23): 2 (9)
Vomiting, any grade TEAE, patients n (%) ([1]; Arm I PO QD, N = 23): 3 (13)
Any grade AE, patients n (%) ([1]; Arm II PO BID, N = 28): 27 (96)
Constipation, any grade TEAE, patients n (%) ([1]; Arm II PO BID, N = 28): 5 (18)
Decreased appetite, any grade TEAE, patients n (%) ([1]; Arm II PO BID, N = 28): 9 (32)
Diarrhoea, any grade TEAE, patients n (%) ([1]; Arm II PO BID, N = 28): 8 (29)
Diarrhoea, grade 3 or 4 TEAE, patients n (%) ([1]; Arm II PO BID, N = 28): 1 (4)
Dyspnoea, any grade TEAE, patients n (%) ([1]; Arm II PO BID, N = 28): 3 (11)
Fatigue, any grade TEAE, patients n (%) ([1]; Arm II PO BID, N = 28): 14 (50)
Grade 3 or 4 AE, patients n (%) ([1]; Arm II PO BID, N = 28): 15 (54)
Headache, any grade TEAE, patients n (%) ([1]; Arm II PO BID, N = 28): 4 (14)
Hypertension, any grade TEAE, patients n (%) ([1]; Arm II PO BID, N = 28): 9 (32)
Hypertension, grade 3 or 4 TEAE, patients n (%) ([1]; Arm II PO BID, N = 28): 4 (14)
Hypokalaemia, any grade TEAE, patients n (%) ([1]; Arm II PO BID, N = 28): 3 (11)
Hypomagnesaemia, any grade TEAE, patients n (%) ([1]; Arm II PO BID, N = 28): 3 (11)
Nausea, any grade TEAE, patients n (%) ([1]; Arm II PO BID, N = 28): 5 (18)
Neutropenia, grade 3 or 4 TEAE, patients n (%) ([1]; Arm II PO BID, N = 28): 2 (7)
Thrombocytopenia, any grade TEAE, patients n (%) ([1]; Arm II PO BID, N = 28): 5 (18)
Urinary tract infection, any grade TEAE, patients n (%) ([1]; Arm II PO BID, N = 28): 5 (18)
Vomiting, any grade TEAE, patients n (%) ([1]; Arm II PO BID, N = 28): 8 (29)
Any grade AE, patients n (%) ([1]; Arm III i.v., N = 7): 7 (100)
Constipation, any grade TEAE, patients n (%) ([1]; Arm III i.v., N = 7): 2 (29)
Decreased appetite, any grade TEAE, patients n (%) ([1]; Arm III i.v., N = 7): 3 (43)
Diarrhoea, any grade TEAE, patients n (%) ([1]; Arm III i.v., N = 7): 2 (29)
Diarrhoea, grade 3 or 4 TEAE, patients n (%) ([1]; Arm III i.v., N = 7): 0
Dyspnoea, any grade TEAE, patients n (%) ([1]; Arm III i.v., N = 7): 2 (29)
Fatigue, any grade TEAE, patients n (%) ([1]; Arm III i.v., N = 7): 1 (14)
Grade 3 or 4 AE, patients n (%) ([1]; Arm III i.v., N = 7): 3 (43)
Headache, any grade TEAE, patients n (%) ([1]; Arm III i.v., N = 7): 0
Hypertension, any grade TEAE, patients n (%) ([1]; Arm III i.v., N = 7): 3 (43)
Hypertension, grade 3 or 4 TEAE, patients n (%) ([1]; Arm III i.v., N = 7): 2 (29)
Hypokalaemia, any grade TEAE, patients n (%) ([1]; Arm III i.v., N = 7): 0
Hypomagnesaemia, any grade TEAE, patients n (%) ([1]; Arm III i.v., N = 7): 0
Nausea, any grade TEAE, patients n (%) ([1]; Arm III i.v., N = 7): 2 (29)
Neutropenia, grade 3 or 4 TEAE, patients n (%) ([1]; Arm III i.v., N = 7): 0
Thrombocytopenia, any grade TEAE, patients n (%) ([1]; Arm III i.v., N = 7): 0
Urinary tract infection, any grade TEAE, patients n (%) ([1]; Arm III i.v., N = 7): 2 (29)
Vomiting, any grade TEAE, patients n (%) ([1]; Arm III i.v., N = 7): 1 (14)
Any grade AE, patients n (%) ([1]; Total, N = 58): 56 (97)
Decreased appetite, any grade TEAE, patients n (%) ([1]; Total, N = 58): 20 (34)
Diarrhoea, any grade TEAE, patients n (%) ([1]; Total, N = 58): 15 (26)
Diarrhoea, grade 3 or 4 TEAE, patients n (%) ([1]; Total, N = 58): 2 (3)
Dyspnoea, any grade TEAE, patients n (%) ([1]; Total, N = 58): 7 (12)
Fatigue, any grade TEAE, patients n (%) ([1]; Total, N = 58): 28 (48)
Grade 3 or 4 AE, patients n (%) ([1]; Total, N = 58): 32 (55)
Headache, any grade TEAE, patients n (%) ([1]; Total, N = 58): 9 (16)
Hypertension, any grade TEAE, patients n (%) ([1]; Total, N = 58): 20 (34)
Hypertension, grade 3 or 4 TEAE, patients n (%) ([1]; Total, N = 58): 10 (17)
Hypokalaemia, any grade TEAE, patients n (%) ([1]; Total, N = 58): 6 (10)
Hypomagnesaemia, any grade TEAE, patients n (%) ([1]; Total, N = 58): 6 (10)
Nausea, any grade TEAE, patients n (%) ([1]; Total, N = 58): 15 (26)
Neutropenia, grade 3 or 4 TEAE, patients n (%) ([1]; Total, N = 58): 2 (3)
Thrombocytopenia, any grade TEAE, patients n (%) ([1]; Total, N = 58): 8 (14)
Urinary tract infection, any grade TEAE, patients n (%) ([1]; Total, N = 58): 9 (16)
Grade 3 or 4 TEAE diarrhoea, patients ([1]; all 58 patients): 3%
Grade 3 or 4 TEAE hypertension, patients ([1]; all 58 patients): 17%
Grade 3 or 4 TEAE neutropenia, patients ([1]; all 58 patients): 3%
Patients with TEAEs ([1]; all 58 patients): 97%
Patients with TEAEs considered possibly or probably related to ilorasertib ([1]; all 58 patients): 66%
Patients with TEAEs that led to discontinuation ([1]; all 58 patients): 17%
Patients with grade 3 or 4 TEAEs ([1]; all 58 patients): 55%
Patients with treatment-emergent serious AEs ([1]; all 58 patients): 36%
Patients with treatment-related grade 3 or 4 TEAEs ([1]; all 58 patients): 28%
Serious AE fatigue, patients ([1]; all 58 patients): 3%
Serious AE small intestinal obstruction, patients ([1]; all 58 patients): 7%
TEAE constipation, patients ([1]; all 58 patients): 22%
TEAE decreased appetite (anorexia), patients ([1]; all 58 patients): 34%
TEAE diarrhoea, patients ([1]; all 58 patients): 26%
TEAE fatigue, patients ([1]; all 58 patients): 48%
TEAE hypertension, patients ([1]; all 58 patients): 34%
TEAE nausea, patients ([1]; all 58 patients): 26%
Treatment-related TEAE decreased appetite, patients ([1]; all 58 patients): 19%
Treatment-related TEAE diarrhoea, patients ([1]; all 58 patients): 14%
Treatment-related TEAE fatigue, patients ([1]; all 58 patients): 24%
Treatment-related TEAE hypertension, patients ([1]; all 58 patients): 29%
Treatment-related TEAE nausea, patients ([1]; all 58 patients): 17%
Treatment-related TEAE thrombocytopenia, patients ([1]; all 58 patients): 14%
Treatment-related TEAE vomiting, patients ([1]; all 58 patients): 10%
Treatment-related grade 3 or 4 diarrhoea, patients ([1]; all 58 patients): 3%
Treatment-related grade 3 or 4 hypertension, patients ([1]; all 58 patients): 14%
Treatment-related grade 3 or 4 neutropenia, patients ([1]; all 58 patients): 3%
Relatedness of deaths to ilorasertib (investigator) ([1]; in vivo): none of the deaths were considered related to ilorasertib
Deaths resulting from TEAEs ([1]; one patient in Arm I, two in Arm II, within 30 days of discontinuing the study): three patients
IC50 (c-KIT): 20 nM
